Common to all, as to assay type: functional, organism-based, Hepacivirus hominis
Test [1] concerns Hepatitis C virus. Kind of test: Antiviral activity against Hepatitis C virus GT-1a harboring NS5B polymerase C316Y/M414T mutant gene.
Test [2] relates to Hepatitis C virus. The test can be described thus: Antiviral activity against Hepatitis C virus GT-1a harboring NS5B polymerase C316Y/L392F mutant gene.
For test [3], the system named is Hepatitis C virus. The test can be described thus: Antiviral activity against Hepatitis C virus GT-1a harboring NS5B polymerase C316Y mutant gene.
Test [4] has as its system Hepatitis C virus. Kind of test: Antiviral activity against Hepatitis C virus GT-1a harboring NS5B polymerase M414T mutant gene.
Test [5] deals with Hepatitis C virus. The test can be described thus: Antiviral activity against Hepatitis C virus GT-1b assessed as inhibition of HCV replicon-encoded Renilla luciferase reporter activity after 3 days. The note with it: 72 h. For orientation: Replicon systems follow genome replication, usually without infectious particles.
The subject of test [6] is Hepatitis C virus. Kind of test: Antiviral activity against Hepatitis C virus GT-1b harboring NS5B polymerase C316Y mutant gene relative to wild type.
Test [7] concerns Hepatitis C virus. Kind of test: Antiviral activity against Hepatitis C virus GT-1a harboring NS5B polymerase L392F/M414T mutant gene.
Test [8] relates to Hepatitis C virus. Kind of test: Antiviral activity against Hepatitis C virus GT-1a harboring NS5B polymerase L392F mutant gene.
The test system of test [9] is Hepatitis C virus. Kind of test: Antiviral activity against Hepatitis C virus GT-1b harboring wild type NS5B polymerase.
The test system of test [10] is Hepatitis C virus. Kind of test: Antiviral activity against Hepatitis C virus GT-1a harboring wild type NS5B polymerase.
Test [11] concerns Hepatitis C virus. Kind of test: Antiviral activity against Hepatitis C virus GT-1a assessed as inhibition of HCV replicon-encoded Renilla luciferase reporter activity after 3 days. The following applies: 72 h.

What is called EC50 is the concentration needed to bring the measured effect to its halfway point.

In the case of `CNC(=O)c1c(-c2ccc(F)cc2)oc2cc(N(CCO)S(C)(=O)=O)c(C3CC3)cc12` [NESBUVIR], the EC50 in test [1] worked out at 2800 nM; in [2], 3200 nM; in test [3] it was 1700 nM; in test [4], 7 nM; in test [5], 17 nM; in [6], 6 nM. Also, the half-maximal effective concentration (EC50) came to 22 nM in [7], 8 nM in [8], 6 nM in test [9] and 4 nM in test [10].

Turning to `CCC[C@H](NC(=O)[C@@H]1[C@H]2CCC[C@H]2CN1C(=O)[C@@H](NC(=O)[C@@H](NC(=O)c1cnccn1)C1CCCCC1)C(C)(C)C)C(=O)C(=O)NC1CC1` [TELAPREVIR], the 50% effective concentration (EC50) came to 560 nM in [5] and 500 nM in test [11].

These data come from ChEMBL document CHEMBL1671653, “GT-1a or GT-1b subtype-specific resistance profiles for hepatitis C virus inhibitors telaprevir and HCV-796” (Antimicrob Agents Chemother, 2009).
